In ChEMBL document CHEMBL1135403, “Nanomolar inhibitors of Staphylococcus aureus methionyl tRNA synthetase with potent antibacterial activity against gram-positive pathogens” (J Med Chem, 2002):
Values after ≈ are worked out from the molar mass of the structure shown.

Columns and labels:
Staphylococcus aureus [1] = test: In vitro minimum inhibitory activity against Staphylococcus aureus WCUH29 strain; assay type: functional
Enterococcus faecalis [2] = test: MIC required to inhibit 90% of the growth of Enterococcus faecalis (n = 10); assay type: functional
Staphylococcus aureus [3] = test: In vitro inhibitory concentration against Staphylococcus aureus Methionyl tRNA synthetase; assay type: functional
[4] = test system: Staphylococcus epidermidis; test: MIC required to inhibit 90% of the growth of Staphylococcus epidermidis (n = 10); assay type: functional
Enterococcus faecium = test: MIC required to inhibit 90% of the growth of Enterococcus faecium (n = 10); assay type: functional
Staphylococcus aureus [5] = test: MIC required to inhibit 90% of the growth of Staphylococcus aureus (n = 31); assay type: functional
Enterococcus faecalis [6] = test: In vitro minimum inhibitory activity against Enterococcus faecalis 7 strain; assay type: functional
Staphylococcus aureus [7] = test: In vitro minimum inhibitory activity against Staphylococcus aureus Oxford strain; assay type: functional
Enterococcus faecalis [8] = test: In vitro minimum inhibitory activity against Enterococcus faecalis 1 strain; assay type: functional
Nucleic Acid = test: In vitro inhibitory concentration against tRNA synthetases, in a pyrophosphate exchange assay; assay type: functional, Staphylococcus aureus
Staphylococcus aureus [9] = test: In vivo efficacy against Staphylococcus aureus WCUH29 in a Groin Abscess infection in rats at a dose of 21 mg/kg; log10 cfu; assay type: functional
Staphylococcus aureus [10] = test: In vitro antibacterial activity and competitive kinetics with respect to methionine; assay type: functional, organism-based
Staphylococcus aureus [11] = test: In vivo efficacy against Staphylococcus aureus WCUH29 in a Groin Abscess infection in rats at a dose of 50 mg/kg; log10 cfu; assay type: functional

## Oc1cc(NCCCNC2CCNc3c(Br)cc(Br)cc32)nc2ccccc12 (configuration not stated)
Staphylococcus aureus [1]
  MIC: 0.125 µg/mL (≈ 0.247 µM)
Enterococcus faecalis [2]
  MIC90: 0.03 µg/mL (≈ 0.0593 µM)
Staphylococcus aureus [3]
  IC50: 8 nM
[4]
  MIC90: 0.5 µg/mL (≈ 0.988 µM)
Enterococcus faecium
  MIC90: < 0.016 µg/mL
Staphylococcus aureus [5]
  MIC90: 0.5 µg/mL (≈ 0.988 µM)
Enterococcus faecalis [6]
  MIC: < 0.06 µg/mL
Staphylococcus aureus [7]
  MIC: < 0.06 µg/mL
Enterococcus faecalis [8]
  MIC: < 0.06 µg/mL

## CCc1cc(I)c2c(c1)C(NCCCNc1cc(=O)c3ccccc3[nH]1)CCN2 (configuration not stated)
Staphylococcus aureus [1]
  MIC: 0.25 µg/mL (≈ 0.498 µM)
Enterococcus faecalis [2]
  MIC90: 0.25 µg/mL (≈ 0.498 µM)
Nucleic Acid
  IC50: 1.4 nM
[4]
  MIC90: 1 µg/mL (≈ 1.99 µM)
Staphylococcus aureus [9]
  Bacterial counts: 3.9
Enterococcus faecium
  MIC90: 0.06 µg/mL (≈ 0.119 µM)
Staphylococcus aureus [5]
  MIC90: 1 µg/mL (≈ 1.99 µM)
Enterococcus faecalis [6]
  MIC: 0.125 µg/mL (≈ 0.249 µM)
Staphylococcus aureus [7]
  MIC: 0.25 µg/mL (≈ 0.498 µM)
Enterococcus faecalis [8]
  MIC: < 0.06 µg/mL

## O=c1cc(NCCCNCc2ccc(Cl)c(Cl)c2)[nH]c2ccccc12
Staphylococcus aureus [1]
  MIC: 8 µg/mL (≈ 21.3 µM)
Staphylococcus aureus [10]
  Ki: 5 nM
Staphylococcus aureus [3]
  IC50: 16 nM
Enterococcus faecalis [6]
  MIC: 2 µg/mL (≈ 5.32 µM)
Staphylococcus aureus [7]
  MIC: 4 µg/mL (≈ 10.6 µM)
Enterococcus faecalis [8]
  MIC: 2 µg/mL (≈ 5.32 µM)

## CC1(C)S[C@@H]2[C@H](NC(=O)[C@H](N)c3ccc(O)cc3)C(=O)N2[C@H]1C(=O)O [AMOXICILLIN]
Staphylococcus aureus [1]
  MIC: > 64 µg/mL
Enterococcus faecalis [2]
  MIC90: > 16 µg/mL
[4]
  MIC90: 8 µg/mL (≈ 21.9 µM)
Enterococcus faecium
  MIC90: > 16 µg/mL
Staphylococcus aureus [5]
  MIC90: > 16 µg/mL
Enterococcus faecalis [6]
  MIC: 0.5 µg/mL (≈ 1.37 µM)
Staphylococcus aureus [7]
  MIC: 0.125 µg/mL (≈ 0.342 µM)
Enterococcus faecalis [8]
  MIC: 0.5 µg/mL (≈ 1.37 µM)

## CC[C@H]1OC(=O)[C@H](C)[C@@H](O[C@H]2C[C@@](C)(OC)[C@@H](O)[C@H](C)O2)[C@H](C)[C@@H](O[C@@H]2O[C@H](C)C[C@H](N(C)C)[C@H]2O)[C@](C)(O)C[C@@H](C)C(=O)[C@H](C)[C@@H](O)[C@]1(C)O [ERYTHROMYCIN]
Staphylococcus aureus [11]
  Bacterial counts: 3.7

## C/C(=C\C(=O)OCCCCCCCCC(=O)O)C[C@@H]1OC[C@H](C[C@@H]2O[C@H]2[C@@H](C)[C@H](C)O)[C@@H](O)[C@H]1O [MUPIROCIN]
Staphylococcus aureus [1]
  MIC: 0.25 µg/mL (≈ 0.499 µM)
Enterococcus faecalis [6]
  MIC: 64 µg/mL (≈ 128 µM)
Enterococcus faecalis [8]
  MIC: 64 µg/mL (≈ 128 µM)
